The record followed here is BindingDB's records for doi:10.1021/jm00126a020 (Sankyo, 1989).

Each structure is given as a SMILES string. pIC50: −log10 of the molar value.

The target of the first assay is T1, Thromboxane-A synthase (Homo sapiens, UniProt P24557).
T1 sequence (P24557 whole entry): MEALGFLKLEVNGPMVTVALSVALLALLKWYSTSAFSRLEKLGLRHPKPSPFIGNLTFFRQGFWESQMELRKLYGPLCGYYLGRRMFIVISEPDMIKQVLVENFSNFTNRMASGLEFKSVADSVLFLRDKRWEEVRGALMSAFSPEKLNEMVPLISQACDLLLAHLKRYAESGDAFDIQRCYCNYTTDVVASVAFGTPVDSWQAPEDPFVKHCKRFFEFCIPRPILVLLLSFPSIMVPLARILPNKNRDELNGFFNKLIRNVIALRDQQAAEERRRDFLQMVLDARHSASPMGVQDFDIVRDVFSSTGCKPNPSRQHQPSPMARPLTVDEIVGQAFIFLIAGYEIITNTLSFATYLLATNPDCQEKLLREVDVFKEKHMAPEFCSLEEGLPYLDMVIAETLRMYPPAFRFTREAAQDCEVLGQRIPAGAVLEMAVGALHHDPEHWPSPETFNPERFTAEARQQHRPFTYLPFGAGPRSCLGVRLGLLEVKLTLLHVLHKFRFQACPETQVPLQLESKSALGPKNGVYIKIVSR
Nature of the assay: ChEBML_209951. The text has this: Inhibition of thromboxane A2 synthetase
As to `O=C(O)C1=Cc2cc(C(c3ccccc3)n3ccnc3)sc2CC1` (stereo not drawn), the pIC50 is 6.94.

Compound `O=C(O)C1CCc2cc(CCn3ccnc3)sc2C1` (stereo not drawn) had a pIC50 of 5.73.

Consider `O=C(O)C1=Cc2cc(CCn3ccnc3)sc2CC1`, for which the pIC50 is 7.00.

The compound `O=C(O)C1CCc2sc(CCn3ccnc3)cc2C1` (stereo not drawn) had a pIC50 of 5.99.

Take `O=C(O)C1=Cc2sc(CCn3ccnc3)cc2CC1`: the pIC50 was below 5.00.

In turn, `O=C(O)C1CCc2sc(Cn3ccnc3)cc2C1` (stereo not drawn) showed a pIC50 of 7.07.

As for `O=C(O)c1cc2c(s1)CCC(Cn1ccnc1)C2` (stereo not drawn), the pIC50 was 6.94.

As to `O=C(O)c1cc2c(s1)CC(Cn1ccnc1)CC2` (stereo not drawn), the pIC50 is 5.57.

`O=C(O)C1=Cc2cc(Cn3ccnc3)sc2CC1` showed a pIC50 of 7.03.

`CC(C)(C)C(c1cc2c(s1)CCC(C(=O)O)=C2)n1ccnc1` (stereo not drawn) showed a pIC50 below 5.00.

Compound `O=C(O)C1=Cc2cc(C(C3CCCCC3)n3ccnc3)sc2CC1` (stereo not drawn) had a pIC50 below 5.00.

Compound `O=C(O)C1=Cc2sc(Cn3ccnc3)cc2CC1` [2-Imidazol-1-ylmethyl-4,5-dihydro-benzo[b]thiophene-6-carboxylic acid] showed a pIC50 of 7.89.

For a further assay, the target named is Thromboxane-A synthase (Oryctolagus cuniculus). Put plainly: Inhibition of platelet microsomal thromboxane A2 synthetase in rabbits.
Consider `O=C(O)C1=Cc2sc(Cn3ccnc3)cc2CC1` [2-Imidazol-1-ylmethyl-4,5-dihydro-benzo[b]thiophene-6-carboxylic acid], for which the pIC50 is 7.89.

Usually pIC50 stands for the IC50 on a negative log10 scale, so that one unit is a factor of ten.
